Results taken from paper PMC4432651, “Dynamic interplay between catalytic and lectin domains of GalNAc-transferases modulates protein O-glycosylation” (Nature Communications, 2015).
Where a SMILES comes first, the peptide text is derived from it. The star is where a group is joined. αGalNAc = CC(=O)N[C@@H]1[C@@H](O)[C@@H](O)[C@@H](CO)O[C@@H]1*

Target: T1, GalNAc-T2 (Homo sapiens, UniProt Q10471)
T1 construct: made in house
Test: Time-lapse AFM of single GalNAc-T2 molecules with ligands
Conditions: GalNAc-T2 2.0 nM on mica, PBS pH 7.4, 20 °C
Description: AFM measurements were performed using a MultiMode 8 AFM system (Bruker). […] Additional details are in Supplementary Methods. […]
simulations were performed with the acceptor amino acid – UDPGalNAc distance and the RMSD of the Cα peptide carbon atoms as collective variables.
The values of the height and width of the Gaussian-like biasing potential were selected as 1.0 kcal·mol -1 and 0.25 Å, respectively. A temperature window of ΔT = 25000 K for the well-tempered algorithm was used together with a deposition time of 1 ps. The simulation was continued until the system completely explored the free energy landscape several times which, in terms of the simulation time, corresponds to approximately 100 ns for each metadynamics run.
Atomic Force Microscopy Imaging
In Tapping Mode image operation the cantilever driven by a piezoelectric actuator vibrates near its resonance frequency. Upon approaching the sample, the tip briefly touches the surface at the bottom of each swing, resulting in a decrease in oscillation amplitude. […]
AFM scanning requires the sample be immobilized on a nanoflat surface not to be swept away. […] The concentration of the protein incubated on the mica sheets was suitable to get isolated features that could be analyzed individually. […]
GalNAc-T2 presents a net positive charge at the working pH conditions due to its theoretical isoelectric point of 8.3. The immobilization of enzymes on mica was previously evaluated observing clearly they preserve the enzymatic activity5.
To determine how the ligands affect the conformational dynamics of GalNAc-T2, the enzyme was also incubated with ligands for 10 min under mild stirring at room temperature. […] AFM images were further analyzed by using the WSxM software6. […] At least 10 images of 10 different areas of 500 nm2 were analyzed for every sample and environment. Furthermore, each feature or associate was analyzed in detail with the zoom function of the WSxM program, performed without losing image information and or the discarding of artifacts. […]

T1 sequence (Q10471 75-571 limits assumed): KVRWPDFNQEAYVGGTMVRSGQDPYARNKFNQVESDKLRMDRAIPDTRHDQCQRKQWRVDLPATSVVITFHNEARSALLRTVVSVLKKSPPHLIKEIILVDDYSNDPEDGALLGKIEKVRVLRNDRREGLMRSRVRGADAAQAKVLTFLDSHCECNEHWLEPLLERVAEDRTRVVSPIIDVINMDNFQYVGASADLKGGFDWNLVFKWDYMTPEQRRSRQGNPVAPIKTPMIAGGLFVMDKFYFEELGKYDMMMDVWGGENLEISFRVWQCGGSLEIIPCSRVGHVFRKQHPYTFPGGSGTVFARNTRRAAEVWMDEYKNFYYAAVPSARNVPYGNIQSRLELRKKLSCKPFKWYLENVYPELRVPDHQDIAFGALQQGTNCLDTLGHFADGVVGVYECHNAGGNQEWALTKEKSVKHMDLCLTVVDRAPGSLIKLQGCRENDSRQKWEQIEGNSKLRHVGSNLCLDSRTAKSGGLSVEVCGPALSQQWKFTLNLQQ

| SMILES | conformational states of GalNAc-T2 observed (peptide alone or in combination with UDP/Mn+2, peptides 10.0 nM) | conformational states of GalNAc-T2 observed (in the presence of Mn+2, UDP, UDP-GalNAc and MnCl2 20.0 nM) |
| --- | --- | --- |
| CC(=O)NCC(=O)N[C@H](C(=O)N[C@H](C(=O)N1CCC[C@H]1C(=O)N[C@@H](CO)C(=O)N1CCC[C@H]1C(=O)N[C@H](C(=O)N1CCC[C@H]1C(=O)N[C@H](C(=O)N[C@H](C(=O)N[C@@H](CO)C(=O)N[C@H](C(=O)N[C@H](C(=O)N[C@@H](CO)C(=O)N[C@@H](C)C(N)=O)[C@@H](C)O[C@H]1O[C@H](CO)[C@H](O)[C@H](O)[C@H]1NC(C)=O)[C@@H](C)O)[C@@H](C)O)[C@@H](C)O)C(C)C)[C@@H](C)O)[C@@H](C)O [MUC5AC-13] (Ac-GTTPSPVPTTSTT(αGalNAc)SA-NH2; N-terminus assumed) | three different conformational states are present | – |
| O=c1ccn([C@@H]2O[C@H](COP(=O)(O)OP(=O)(O)O)[C@@H](O)[C@H]2O)c(=O)[nH]1 [UDP, uridine diphosphate, reference compound] | – | either the very compact or the compact structure |
